Experimental findings from patent US6572860B1, “Immunogenic conjugated polypeptide for treatment of herpes simplex virus” (CEL-SCI Corporation, priority 1997, dated 2003) are described below.

Entries after “also recorded” stand apart in the source; their conditions may differ.

Experiment [1] deals with HSV-1. Nature of the experiment: Intraperitoneal challenge of vaccinated mice with an LD50 of HSV-1: symptoms and survival. Particulars: Balb/c mice 4 wk old, n=6, vaccinated twice, challenged with an LD50 of HSV-1; for disease symptoms (symptom score 1-5): FIG. 4; for survival / death: FIG. 5. It is filed as in vivo. As to the method:
Similar tests as described above were carried out. Balb/c mice (4 wk old) (n=6) were unvaccinated (NO VAC) or vaccinated and revaccinated two weeks later with the H1 peptide or the indicated conjugated polypeptide. The mice were then challenged two weeks later with an LD50 of HSV-1. Symptoms were scored daily as:
(§1) 1. non-specific mild symptoms
(§2) 2. mild swelling of the abdomen
(§3) 3. significant swelling of the abdomen and malaise
The results are shown in FIG. 4 for symptoms, in FIG. 5 for survival and in FIG. 6 for DTH.

For experiment [2], the system named is peptide H1. As to the kind of experiment: ELISA of antibody responses to peptide H1. It is filed as in vivo. Particulars: immunized Balb/c mice. As to the method: (§4) Each immunization consisted of 33 nmoles of conjugated polypeptide or non-conjugated antigenic peptide H1 (equivalent to 100 μg of the JH1 vaccine). The peptide was mixed with the Novasome liposomal adjuvant (50% v/v). The mice were immunized twice with a two week interval between inoculations. After an additional two weeks, most of the mice received an intraperitoneal challenge with the EKN clinical strain of HSV-1. The mice were evaluated daily for symptoms. […] Blood was obtained from selected mice for ELISA studies prior to immunization and prior to virus challenge. The results are shown in FIG. 1 for symptom (on a daily basis) and in FIG. 2 for survival following vaccination and sub-lethal challenge.

Experiment [3] relates to ultraviolet inactivated HSV. As to the kind of experiment: Delayed type hypersensitivity (DTH), ear pinna swelling at 48 hours (FIG. 3). In kind it is in vivo, Balb/c mice. Particulars: vaccinated unchallenged mice, 4 weeks after last immunization, 48 hours after injection of UV inactivated HSV. As to the method:
as §4
DTH response was evaluated 4 weeks after the last immunization for the vaccinated mice and three unvaccinated HSV challenged mice which had recovered from disease (C). Swelling of the right ear pinna was measured at 48 hours following injection of ultraviolet inactivated HSV and compared to the left ear pinna which had been injected with buffer.
In another series of parallel experiments Balb/c female mice (n=9) were vaccinated with the H1 peptide or the JH1, GH1 or LH1 conjugated polypeptides according to the same protocol as for the HSV-1 challenge experiment described above.

Experiment [4] relates to ultraviolet inactivated HSV. Nature of the experiment: Delayed type hypersensitivity (DTH), ear pinna swelling at 24, 48 and 96 hours (FIG. 6). The following applies: 4 weeks after last immunization, 24, 48 and 96 hours after injection of UV inactivated HSV. It is filed as in vivo, Balb/c mice. How it is done:
DTH response was evaluated 4 weeks after the last immunization for the vaccinated mice and three unvaccinated HSV challenged mice which had recovered from disease (Ctrl)
(§5) The protocol used in this experiment differed slightly from that of FIG. 3. Swelling in the right ear pinna was measured by micrometer prior to and at 24, 48 and 96 hours following injection of ultraviolet inactivated HSV and compared to the left ear pinna which had been injected with an uninfected Vero cell extract.

The subject of experiment [5] is HSV-1. As to the kind of experiment: Intraperitoneal HSV-1 challenge of vaccinated mice, sub-lethal (<LD50) challenge: symptoms and survival. In kind it is in vivo, Balb/c mice. The following applies: for Symptomatic conditions after viral challenge (symptom score 1-5) / survival after viral challenge: Balb/c mice; for Symptomatic conditions after viral challenge (symptom score 1-5): 2 immunizations of 33 nmoles in Novasome adjuvant, i.p. sub-lethal HSV-1 challenge two weeks later; for survival after viral challenge: sub-lethal i.p. HSV-1 challenge, FIG. 2.
Text: An intraperitoneal challenge model using mice test animal was selected although the predominant presentation of HSV disease is not intraperitoneal since a reproducible course of disease occurs following viral challenge; since the viral challenge dose can be well defined and readily delivered by intraperitoneal injection since the symptoms are readily detected and the course of disease can be qualitatively evaluated; and since the relevant parameter of survival may be readily evaluated. Immune function studies may also be conducted in vitro to further characterize the responses to the test vaccines.
In a series of experiments, groups (12 per group) of 3 week old Balb/c female mice (Taconic Farms, Germantown, N.Y.) are immunized and test bled according to the following schedule. Schedule A: immunizations on day 0 and day 14, and two weeks later nine mice of each group are challenged moderately with a lethal dose (<LD50) of HSV (H129 clinical strain) administered intraperitoneally. In this regard, young Balb/c mice show a defined course of disease which progresses from abdominal swelling, lethargy, paraplegia, to death within 1 to 2 weeks. Therefore, the effectiveness of the vaccinations may be readily determined.
as §4
In FIG. 1 symptoms were scored daily as:
as §1, §2, §3

The subject of experiment [6] is HSV-1. Nature of the experiment: HSV-1 challenge of mice vaccinated with B1 peptides: survival (FIG. 7). In kind it is in vivo. Particulars: C57BI6 mice; for survival (mice surviving of 9): after day 8. The source says:
In order to further establish the effectiveness of conjugated peptides according to this invention as effective vaccines for treatment of herpes simplex virus, the HSV epitope B1, which is a T cell epitope (aa 498-505, SSIEFARL) of glycoprotein B found in both HSV-1 or HSV-2 (see Hanke, et al, J. Virol. 65:1177-86; and Bonneau, et al, Virology 195:62-70) was selected and evaluated with either peptide J or peptide G or peptide L as described above. Namely, the conjugated peptides GB1, JB1 and LB1, as described in Table 1 above, were tested under the same conditions as previously described except that in place of the Balb/c mice, C57BI6 mice were vaccinated with the B1 conjugated peptides or non-conjugated B1 peptide (SEQ ID NO:4). The mice immunized with the B1 peptide or with the conjugated peptide LB1 were not protected from HSV-1 challenge (0 of 9 or 1 of 9 survival, respectively, after day 8) and, in fact the B1 and LB1 immunized mice fared worse than the control (unvaccinated) mice (2 of 9 survival after day 8).

Experiment [7] deals with B1 peptide. As to the kind of experiment: ELISA of serum antibody response, B1 peptide as antigen. In kind it is in vivo, C57BI6 mice. As to the method: (§6) The antibody responses of vaccinated and unchallenged mice, vaccinated and challenged mice and unvaccinated and challenged mice were measured by ELISA assay. Serum was obtained 7 weeks after the initial immunization or 2 weeks after the virus challenge. B1 peptide or infected cell extracts were bound to the ELISA plate as antigen. Results are shown in Table 3 and were taken from pooled serum taken from 2 or 3 mice. The results were corrected for non-specific responses by subtracting the absorbance obtained towards an unrelated antigen.
(ELISA stands for enzyme-linked immunosorbent assay.)

The subject of experiment [8] is ultraviolet inactivated HSV. Nature of the experiment: DTH tests on unchallenged mice immunized with B1 peptides. In kind it is in vivo. The following applies: 3 unchallenged immunized C57BI6 mice. As to the method:
as §5

Experiment [9] relates to infected cell extracts. As to the kind of experiment: ELISA of serum antibody response, infected cell extracts as antigen (antivirus response). Particulars: vaccinated and HSV-1 challenged mice, pooled serum, 2 weeks after virus challenge. It is filed as in vivo, C57BI6 mice. How it is done:
as §6

Setting [10] is: 9 challenged mice per group, sub-lethal HSV-1 challenge, FIG. 1.
The mark [11] stands for this setting: vaccinated and unchallenged mice, pooled serum of 2 or 3 mice, 7 weeks after initial immunization.

“LYRTFAGNPRA (SEQ ID NO:1) [H1, non-conjugated antigenic peptide, amino acid residues 322 to 332 of the ICP27 protein of HSV-1, reference compound]”: in experiment [1], the “disease symptoms (symptom score 1-5)” value is recorded as “severe symptoms”. Also, in experiment [1], the survival / death result is on record as “death”. Besides, the “Antibody responses to the antigenic peptide by ELISA” value in experiment [2] is given as “undetectable”. In addition, the “DTH response (redness and swelling of ear pinna)” value in experiment [3] is on record as “not”; in experiment [4] it was “Some swelling but no redness was observed for some but not all of the mice”. Besides, in experiment [5] (FIG. 1), the “Symptomatic conditions after viral challenge (symptom score 1-5)” value (“Symptomatic conditions” for short) is “more severe symptoms throughout the course of infection and death; also recorded: seemed to exacerbate the disease symptoms”. The “survival after viral challenge” value in experiment [5] is “seemed to exacerbate the disease symptoms”.

For the substance “DLL KN GER IEK VEG GGL YRT FAG NPR A (SEQ ID NO:10) (DLLKNGERIEKVEGGGLYRTFAGNPRA) [JH1, conjugated polypeptide of Peptide J (β-2 microglobulin), GGG spacer and peptide H1 of ICP27]”, in experiment [1], the “disease symptoms (symptom score 1-5)” value is reported as “protected from disease symptoms”; the survival / death entry was “protected from disease symptoms and death”. Also, in experiment [3], the “DTH response (redness and swelling of ear pinna)” value was “DTH was observed”. Besides, in experiment [4], the “DTH response (redness and swelling of ear pinna)” value was “DTH was observed on each day”. In [5] (setting [10]), the “number of mice showing significant symptoms” value was “two” and the “number of mice that died” value is given as “one”. Also, the “Symptomatic conditions” value in [5] (FIG. 1) is listed as “protected from disease”. Also, the “survival after viral challenge” value in experiment [5] is reported as “maximal survival”.

For the substance “NGQ EEK AGV VST GLI GGG LYR TFA GNP RA (SEQ ID NO:12) (NGQEEKAGVVSTGLIGGGLYRTFAGNPRA) [GH1, conjugated polypeptide of Peptide G, GGG spacer and peptide H1]”, the “disease symptoms (symptom score 1-5)” value in experiment [1] was “severe symptoms”. In addition, in [1], the survival / death result is “death”. Moreover, the “DTH response (redness and swelling of ear pinna)” value in [3] is recorded as “not”; in experiment [4], “Some swelling but no redness was observed for some but not all of the mice”. In addition, in experiment [5] (FIG. 1), the “Symptomatic conditions” value was “more severe symptoms throughout the course of infection and death; also recorded: seemed to exacerbate the disease symptoms”. The “survival after viral challenge” value in experiment [5] is on record as “seemed to exacerbate the disease symptoms”.

Take “LHG PEI LDV PST GGG LYR TFA GNP RA (SEQ ID NO:13) (LHGPEILDVPSTGGGLYRTFAGNPRA) [LH1, conjugated polypeptide of Peptide L, GGG spacer and peptide H1]”: in experiment [1], the “disease symptoms (symptom score 1-5)” value is recorded as “severe symptoms” and the survival / death entry is “death”. Besides, in experiment [3], the “DTH response (redness and swelling of ear pinna)” value is “not”. Also, in experiment [4], the “DTH response (redness and swelling of ear pinna)” value was “Some swelling but no redness was observed for some but not all of the mice”. For the same substance, in [5] (FIG. 1), the “Symptomatic conditions” value was “more severe symptoms throughout the course of infection and death; also recorded: seemed to exacerbate the disease symptoms”. Further, in experiment [5], the “survival after viral challenge” value is reported as “seemed to exacerbate the disease symptoms”.

On to “DLL KNG ERI EKV EGG GSS IEF ARL (SEQ ID NO:16) (DLLKNGERIEKVEGGGSSGSSIEFARL) [JB1, conjugated polypeptide of Peptide J, GGG spacer and peptide B1 of glycoprotein B]”, for which, in [6], the “protection from HSV-1 challenge” value is “partial protection”, the survival was found to be 44.4% and the “survival (mice surviving of 9)” value was 4 of 9. Moreover, the “B1 PEPTIDE RESPONSE (ELISA absorbance, corrected for non-specific response)” value in experiment [7] (setting [11]) was 0.025. The DTH response entry in experiment [8] was “exhibited a DTH response”. Also, the “ANTIVIRUS RESPONSE (ELISA absorbance, corrected for non-specific response)” value in experiment [9] amounted to 0.445.

Turning to “NGQ EEK AGV VST GLI GGG SSI EFA RL (SEQ ID NO:17) (NGQEEKAGVVSTGLIGGGSSIEFARL) [GB1, conjugated polypeptide of Peptide G, GGG spacer and peptide B1]”, in experiment [6], the “protection from HSV-1 challenge” value is given as “partial protection”, the survival is listed as 55.5% and the “survival (mice surviving of 9)” value is reported as 5 of 9. Further, the “B1 PEPTIDE RESPONSE (ELISA absorbance, corrected for non-specific response)” value in [7] (vaccinated and HSV-1 challenged mice, pooled serum, 2 weeks after virus challenge) was 0.017. Also, the “B1 PEPTIDE RESPONSE (ELISA absorbance, corrected for non-specific response)” value in experiment [7] (setting [11]) was 0.035. The DTH response result in experiment [8] was “did not exhibit a DTH response”.

Consider “SSIEFARL (SEQ ID NO:4) [B1, non-conjugated antigenic peptide, amino acid residues 498 to 505 from glycoprotein B of HSV-1, reference compound]”, for which, in [6], the “protection from HSV-1 challenge” value is “not protected” and the “survival (mice surviving of 9)” value was 0 of 9. Moreover, the “B1 PEPTIDE RESPONSE (ELISA absorbance, corrected for non-specific response)” value in experiment [7] (setting [11]) was found to be 0.031. In addition, in experiment [8], the DTH response entry is recorded as “did not exhibit a DTH response”.

For “LHG PEI LDV PST GGG SSI EFA RL (SEQ ID NO:18) (LHGPEILDVPSTGGGSSIEFARL) [LB1, conjugated polypeptide of Peptide L, GGG spacer and peptide B1]”, in [6], the “protection from HSV-1 challenge” value is on record as “not protected” and the “survival (mice surviving of 9)” value is given as 1 of 9. The “B1 PEPTIDE RESPONSE (ELISA absorbance, corrected for non-specific response)” value in experiment [7] (setting [11]) came to 0.031.
